Reference: a compilation of properties of binary mixtures (doi:10.1039/c5cp04050g)

Test: xn = mol fraction of the nth substance listed
Details: 100 kPa

CCCC[n+]1ccn(C)c1.[Cl-] + NCCO
viscosity [mPa·s]
Details	293 K	298 K	303 K	303.1 K	313.1 K	323.1 K	333.1 K	333.2 K	343.2 K
x2 = 0	–	19	–	15.2	9.93	6.88	–	5.03	3.69
x2 = 0.5	–	134	–	–	–	36.7	–	–	17.9
x2 = 0.677	–	47.4	–	–	–	16.6	–	12	9.1
x2 = 0.8	36.2	28.1	22.4	–	14.9	10.5	7.41	–	5.58
